Legend:
[1] = system: Kunming mice with CFA-induced inflammation; experiment: Effective concentration and plateau experiment of vanadium compounds, tail vein injection, mouse pain model; type: in vivo; conditions: for Duration / Onset time / Maximum analgesic intensity (mean): 6 samples
[2] = system: Kunming mice with CFA-induced inflammation; experiment: Von Frey test (50% paw withdrawal threshold) in CFA-induced inflammatory pain mouse model; type: in vivo
Protocol: 10 μL of complete Freund's adjuvant (CFA) was injected into the left hind foot of mice (♂ Kunming mice, 22 g to 40 g) to induce inflammation. 24 hours after the injection, a Von Frey test was performed to determine a pain threshold. That is, under the guidance of Dixon's Up-Down method, Von Frey fibers were used to induce the mechanical paw withdrawal of the mice, and data were collected and calculated to obtain their 50% paw withdrawal thresholds (paw withdrawal threshold or PWT for short, i.e. pain threshold). Mice were then divided into different groups, including a normal saline group, a positive control group, and a drug group, which were intraperitoneally injected with normal saline, an aspirin (acetylsalicylic acid, or ASA) solution and a solution of compound for testing respectively. A Von Frey test was then performed to monitor changes in pain threshold.
Mice were divided into three groups: a blank control group, an aspirin (ASA) group, and a drug group. In blank control group, the mice were given normal saline, deionized water or deionized water containing ≤5% DMSO at the same volume as that in the drug group. In ASA group, the mice were given the known analgesic drug ASA as the positive control for tested compounds. In drug group, the mice were given compounds for testing accordingly. Due attention was paid to observe whether the pain threshold rose, the period during which the rise was maintained and the magnitude of the rise, after the injection of a tested compound solution.

[3] = Effective concentration table, 8.2 × 10^−4 mg/kg
[4] = Example 6, intraperitoneal injection, D 1.9 mg/kg, S about 250 mg/kg, listed as D
[5] = intraperitoneal injection, conclusions of Examples 3-9
[6] = intraperitoneal injection, doses as in Examples 3-9
[7] = intraperitoneal injection, doses as in Examples 3-9, most of the time after onset
[8] = intraperitoneal injection, versus aspirin control group
[9] = Example 11 (BEOV), intraperitoneal injection, I about 0.97 mg/kg (atomic mass of vanadium)
[10] = Example 12, intraperitoneal injection, J about 0.97 mg/kg (atomic mass of vanadium)
[11] = Plateau experiment, dose (vanadium) A5/G3 0.25, A1/G1/H1 0.49, A4/G2/H2 0.97, H3 1.9 mg/kg, listed as A5
[12] = Plateau experiment, dose (vanadium) A5/G3 0.25, A1/G1/H1 0.49, A4/G2/H2 0.97, H3 1.9 mg/kg, listed as G2
[13] = Plateau experiment, dose (vanadium) A5/G3 0.25, A1/G1/H1 0.49, A4/G2/H2 0.97, H3 1.9 mg/kg, 1.9 mg/kg
[14] = Plateau experiment, dose (vanadium) A5/G3 0.25, A1/G1/H1 0.49, A4/G2/H2 0.97, H3 1.9 mg/kg, listed as A4
[15] = Example 15, intraperitoneal injection, M about 0.97 mg/kg (atomic mass of vanadium)
[16] = Example 13, intraperitoneal injection, K about 0.97 mg/kg (atomic mass of vanadium)
[17] = Example 14, intraperitoneal injection, L about 0.97 mg/kg (atomic mass of vanadium)
[18] = Example 5, intraperitoneal injection, C 1.9 mg/kg (atomic mass of vanadium), S about 250 mg/kg

Compound: [Na+].[Na+].[Na+].[O]=[V]([O-])([O-])[O-] [Solution A6, Sodium orthovanadate]
- Duration [1, 3]: <60 min
- Onset time [1, 3]: 0 to 15 min

Compound: Sodium metavanadate [Solution D]
- Duration [2, 4]: >60 min
- Onset time [2, 4]: 0 to 15 after injection min
- Duration ([2]; Example 6, intraperitoneal injection, D 1.9 mg/kg, S about 250 mg/kg, listed as metavanadate): > 60 min
- Analgesic effect [2, 5]: has an analgesic effect
- Time after injection at which the pain threshold returned to the baseline value [2, 6]: ~90 min
- Pain thresholds / analgesic intensity compared with the S (ASA, aspirin) group [2, 7]: greater than or comparable to those of the mice, boosted by the solution S, in the S group
- Effective duration compared with aspirin (ASA) [2, 8]: longer than that of aspirin

Compound: bis(ethylmaltolato)oxovanadium (IV) [Solution I]
- Duration [2, 9]: >60 min
- Onset time [2, 9]: 15 to 30 after injection min

Compound: [O]=[V-2]12([O]C3=COC(CO)=CC3=[O+]1)[O]C1=COC(CO)=CC1=[O+]2 [Solution J, bis(kojato)oxovanadium (IV)]
- Duration [2, 10]: >60 min
- Onset time [2, 10]: 15 to 30 after injection min

Compound: [Na+].[Na+].[Na+].[O]=[V]([O-])([O-])[O-] [Solution A5, Sodium orthovanadate]
- Duration [1, 11]: >60 min
- Maximum analgesic intensity (mean) [1, 11]: ~0.45 g

Compound: O=S(=O)([O-])[O-].[O]=[V+2] [Solution G2, Vanadyl sulfate]
- Duration [1, 12]: no obvious difference
- Maximum analgesic intensity (mean) [1, 12]: ~0.49 g

Compound: O=S(=O)([O-])[O-].[O]=[V+2] [Solution G4, Vanadyl sulfate]
- Duration [1, 3]: <60 min
- Onset time [1, 3]: 0 to 15 min

Compound: Cc1occc(=O)c1[O-].Cc1occc(=O)c1[O-].[O]=[V+2] [Solution H3, bis(maltolato)oxovanadium (IV)]
- Duration [1, 13]: ≤60 min
- Maximum analgesic intensity (mean) [1, 13]: 0.48 g

Compound: Cc1occc(=O)c1[O-].Cc1occc(=O)c1[O-].[O]=[V+2] [Solution H, bis(maltolato)oxovanadium (IV)]
- Plateau dose ([1]; mice, based on vanadium): ≥ 0.97 mg/kg

Compound: potassium dioxo(citrato)vanadate (V) [Solution F]
- Duration ([2]; mouse, in vivo): >60 min
- Onset time ([2]; mouse, in vivo): 15 to 30 after injection min
- Analgesic effect ([2]; mouse, in vivo, ip): has an analgesic effect
- Effective duration compared with aspirin (ASA) ([2]; mouse, in vivo, ip): longer than that of aspirin
- Pain thresholds / analgesic intensity compared with the S (ASA, aspirin) group ([2]; mouse, in vivo, ip): higher than those of the mice, boosted by the solution S, in the S group
- Time after injection at which the pain threshold returned to the baseline value ([2]; mouse, in vivo, ip): > 90 min

Compound: [Na+].[Na+].[Na+].[O]=[V]([O-])([O-])[O-] [Solution A2, Sodium orthovanadate]
- Onset time ([2]; Example 4, intraperitoneal injection, A1 0.97, A2 0.19, A3 0.097 mg/kg (atomic mass of vanadium), listed as A2): 30 to 45 after injection min

Compound: [Na+].[Na+].[Na+].[O]=[V]([O-])([O-])[O-] [Solution A4, Sodium orthovanadate]
- Duration [1, 14]: <60 min
- Maximum analgesic intensity (mean) [1, 14]: ~0.30 g

Compound: O=C(O)c1ccccn1.O=C(O)c1ccccn1.[O]=[V] [Solution M, Bis(picolinato)oxovanadium (IV)]
- Duration [2, 15]: >60 min
- Onset time [2, 15]: 15 to 30 after injection min

Compound: Bis(acetylacetonato)oxovanadium (IV) [Solution K]
- Duration [2, 16]: >60 min
- Onset time [2, 16]: 15 to 30 after injection min

Compound: O=C([O-])C(=O)[O-].[O]=[V+2] [Solution L, Vanadyl oxalate]
- Duration [2, 17]: >60 min
- Onset time [2, 17]: 15 to 30 after injection min

Compound: [Na+].[Na+].[Na+].[O]=[V]([O-])([O-])[O-] [Solution A3, Sodium orthovanadate]
- Onset time ([2]; Example 4, intraperitoneal injection, A1 0.97, A2 0.19, A3 0.097 mg/kg (atomic mass of vanadium), 0.097 mg/kg): 30 to 45 after injection min

Compound: Cis-bis(maltolato)methoxyoxovanadium (V) [Solution C]
- Duration [2, 18]: about 60 min
- Onset time [2, 18]: 15 to 30 after injection min
- Analgesic effect [2, 5]: has an analgesic effect
- Time after injection at which the pain threshold returned to the baseline value [2, 6]: 90 min
- Pain thresholds / analgesic intensity compared with the S (ASA, aspirin) group [2, 7]: comparable to those of the mice, boosted by the solution S, in the S group
- Effective duration compared with aspirin (ASA) [2, 8]: longer than that of aspirin
